Experimental findings from PMC11855207, “Synthesis and Evaluation of Aromatic A-Ring 23-Oxavitamin D3 Analogues as Hedgehog Pathway Inhibitors” (International Journal of Molecular Sciences, 2025) are described below.

Each structure is given as a SMILES string. Bounds are passed on as bounds.

Experiment [1] deals with Hh signaling pathway (Gli1 mRNA) in C3H10T1/2 cells. Kind of experiment: Gli1 mRNA down-regulation (qPCR) in OHC-stimulated C3H10T1/2 cells. To be noted: Mus musculus. The class given is cell-based, mouse. As to the method: (§1) The VD3 analogues were initially assessed for their ability to inhibit the Hh signaling pathway by evaluating the effects on endogenous Gli1 mRNA levels at a single concentration (5 μM) co-administration of oxysterols (OHCs; 20(S)-hydroxycholesterol, 22(S)-hydroxycholesterol at 5 μM each) in C3H10T1/2 cells, an Hh-dependent mouse embryonic fibroblast (MEF) cell line. […] VD3 derivatives may retain some VDR agonistic activity, thereby compromising the selectivity of these compounds as Hh inhibitors. The selectivity profile of the analogues for Hh inhibition, compared to typical VDR activation, was assessed by measuring the ability to up-regulate Cyp24a1 mRNA levels in the same cellular system and by evaluating their binding to VDR using a fluorescence polarization-based competition assay (Table 1).
(§2) Mouse embryonic fibroblast cell line (C3H10T1/2, wild-type, VDR^−/−, SuFu^−/−), mouse keratinocyte cell line (ASZ001), and human embryonic kidney cell line (HEK293T) were purchased from China Center for Type Culture Collection (CCTCC; Wuhan, Hubei, China) and cultured under standard protocols. […] Therefore, they can be used to assess the inhibitory strength of the Hh signaling and the selectivity of the VDR signaling. VDR^−/− and SuFu^−/− C3H10T1/2 cells were used to study compounds selectivity for Hh and VDR signaling. If compounds regulate Hh signaling independently of VDR, their ability to down-regulate Gli1 mRNA expression should be abolished in SuFu^−/− C3H10T1/2 cells. […] The loss of Ptch in ASZ001 cells […], so down-regulating Gli1 reflects direct Smo inhibition by the compound. Comparing results from ASZ001 and C3H10T1/2 cells highlights the compound’s inhibition of the Hh signaling pathway.
(§3) RNA isolation in C3H10T1/2 cells was performed in 24-well plates (50,000 cells plated; TRIZOL Reagent); in ASZ001, cells were done in 35 mm dishes (300,000 cells plated; TRIZOL Reagent). cDNA synthesis was performed utilizing the SweScript All-in-One RT SuperMix Kit (Servicebio, Wuhan, China) per the manufacturer’s instructions on a BioRad S1000 Thermal Cycler (Hercules, CA, USA). qPCR (Hh signaling pathway and VDR) analysis of target genes was performed on Step OnePlus (ABI) using the Taqman Gene Expression Assays: mouse ActB (Mm00607939_s1), mouse GLI1 (Mm00494645_ml), mouse PTCH1(Mm00436026_m1), and mouse CYP24A1 (Mm00487244_ml). Relative gene expression levels were computed via the ΔΔCt method. ActinB mRNA expression levels of all samples were normalized to DMSO control ActinB mRNA levels (vehicle; set at 1.00). […] The mRNA expression levels from drug-treated samples were compared to OHCs levels (Gli1, PTCH) and DMSO control (Cyp24A1).
Background: Quantitative PCR measures a nucleic acid by following its amplification.

The subject of experiment [2] is VDR signaling (Cyp24A1 mRNA) in C3H10T1/2 cells. Kind of experiment: Cyp24A1 mRNA up-regulation (qPCR) in C3H10T1/2 cells. Conditions: Mus musculus, C3H 10T1/2, 5 μM with OHCs 5 μM, 24 h, relative to DMSO (set to 1.0). The experiment is classed as cell-based, mouse. The method, then: as §1, §2, §3
The target of a further experiment is T1, recombinant VDR (Homo sapiens, UniProt P11473).
T1 construct: purchased Thermo Fisher Scientific
T1 sequence (P11473 1-427): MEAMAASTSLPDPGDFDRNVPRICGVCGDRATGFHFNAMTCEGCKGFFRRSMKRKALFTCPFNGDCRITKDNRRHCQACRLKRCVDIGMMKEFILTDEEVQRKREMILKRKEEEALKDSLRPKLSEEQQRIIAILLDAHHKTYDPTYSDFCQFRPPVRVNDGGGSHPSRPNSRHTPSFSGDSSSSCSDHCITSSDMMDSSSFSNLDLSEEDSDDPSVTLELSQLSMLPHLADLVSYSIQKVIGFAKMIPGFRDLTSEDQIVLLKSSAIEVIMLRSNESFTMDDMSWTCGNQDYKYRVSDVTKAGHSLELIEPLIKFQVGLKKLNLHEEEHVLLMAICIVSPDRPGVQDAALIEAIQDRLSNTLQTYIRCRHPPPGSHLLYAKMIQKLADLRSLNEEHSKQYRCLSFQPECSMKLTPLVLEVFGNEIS
The experiment is described as follows: VDR binding, fluorescence polarization-based competition assay (PolarScreen VDR Competitor Assay Red). To be noted: compounds evaluated at 100 μM. As to the method:
as §1
VDR binding assay was performed using a PolarScreen VDR Competitor Assay Red kit (Thermo Fisher Scientific, Carlsbad, CA, USA) per the manufacturer’s instructions. Compounds were evaluated at 100 μM in 2.5% final DMSO in triplicate. Calcitriol is utilized as a positive control for VDR binding.
A general note: In fluorescence polarisation assays a small probe gives low polarisation when free and higher when bound to something large.

The subject of experiment [3] is Hh signaling pathway (Ptch mRNA) in C3H10T1/2 cells. Kind of experiment: Ptch mRNA down-regulation (qPCR) in C3H10T1/2 cells. The class given is cell-based. To be noted: Mus musculus, C3H 10T1/2; C3H10T1/2 cells; mean ± SEM; read-out: Ptch IC50.
Procedure: (§4) RNA isolation in C3H10T1/2 cells was performed in 24-well plates (50,000 cells plated; TRIZOL Reagent); in ASZ001, cells were done in 35 mm dishes (300,000 cells plated; TRIZOL Reagent). cDNA synthesis was performed utilizing the SweScript All-in-One RT SuperMix Kit (Servicebio, Wuhan, China) per the manufacturer’s instructions on a BioRad S1000 Thermal Cycler (Hercules, CA, USA). qPCR (Hh signaling pathway and VDR) analysis of target genes was performed on Step OnePlus (ABI) using the Taqman Gene Expression Assays [18, 29]: mouse ActB (Mm00607939_s1), mouse GLI1 (Mm00494645_ml), mouse PTCH1(Mm00436026_m1), and mouse CYP24A1 (Mm00487244_ml). Relative gene expression levels were computed via the ΔΔCt method. ActinB mRNA expression levels of all samples were normalized to DMSO control ActinB mRNA levels (vehicle; set at 1.00). […] The mRNA expression levels from drug-treated samples were compared to OHCs levels (Gli1, PTCH) and DMSO control (Cyp24A1).
The test system of experiment [4] is Hh signaling pathway (Gli1 mRNA) in ASZ001 cells. The experiment is described as follows: Gli1 mRNA down-regulation (qPCR) in ASZ001 cells. The class given is cell-based. Conditions: Mus musculus; ASZ001 cells; mean ± SEM; read-out: Gli1 IC50.
Procedure: Mouse embryonic fibroblast cell line (C3H10T1/2, wild-type, VDR^−/−, SuFu^−/−), mouse keratinocyte cell line (ASZ001), and human embryonic kidney cell line (HEK293T) were purchased from China Center for Type Culture Collection (CCTCC; Wuhan, Hubei, China) and cultured under standard protocols [16]. […] The loss of Ptch in ASZ001 cells prevents Smo inhibition, so down-regulating Gli1 reflects direct Smo inhibition by the compound.
as §4
Experiment [5] deals with VDR signaling (Cyp24A1 mRNA) in ASZ001 cells. The experiment is described as follows: Cyp24A1 mRNA expression (qPCR) in ASZ001 cells. The class given is cell-based. Conditions: Mus musculus; ASZ001 cells; 5 μM, 24 h; DMSO set to 1.0; read-out: Cyp24A1 mRNA levels relative to DMSO.
Procedure: as §4
The test system of experiment [6] is primary Ptch-CKO MB cells. The experiment is described as follows: Anti-proliferation (MTS) in primary Ptch-CKO MB cells. The experiment is classed as cell-based. To be noted: Mus musculus, 48 h incubation, mean ± SEM. As to the method: Ptch-CKO MB cells, derived from a conditional Patched knockout mouse, lack Ptch-like ASZ001 cells. Consequently, the inhibitory effect of the compound on Ptch-CKO MB cells directly reflects its suppression of the canonical Hh signaling pathway. Cell viability was assessed by MTS proliferation assay kit (Promega, Madison, WI, USA) according to the manufacturer’s protocol. Culture conditions and experimental protocols to determine GI50 values in the primary murine Ptch-CKO MB cells were as previously described.

Another experiment has as its system ASZ001 cells. The experiment is described as follows: Anti-proliferation (MTS) in ASZ001 cells. The class given is cell-based. Conditions: Mus musculus, 48 h incubation, mean ± SEM.
Experiment [7] deals with Hh signaling (Gli1 mRNA) in VDR−/− C3H10T1/2 cells. The experiment is described as follows: Gli1 down-regulation in VDR−/− C3H10T1/2 cells. Conditions: 24 h. The class given is cell-based, mouse.
Procedure: (§5) The ability of these compounds to regulate Hh and VDR signaling was studied in VDR^−/− and SuFu^−/− C3H10T1/2 cells. If the compounds regulate Hh signaling independently of VDR, their ability to down-regulate Gli1 mRNA expression should be completely abolished in the SuFu^−/− C3H10T1/2 cells [12, 20].
(§6) RNA isolation in C3H10T1/2 cells was performed in 24-well plates (50,000 cells plated; TRIZOL Reagent); in ASZ001, cells were done in 35 mm dishes (300,000 cells plated; TRIZOL Reagent). cDNA synthesis was performed utilizing the SweScript All-in-One RT SuperMix Kit (Servicebio, Wuhan, China) per the manufacturer’s instructions on a BioRad S1000 Thermal Cycler (Hercules, CA, USA). qPCR (Hh signaling pathway and VDR) analysis of target genes was performed on Step OnePlus (ABI) using the Taqman Gene Expression Assays [18, 29]: mouse ActB (Mm00607939_s1), mouse GLI1 (Mm00494645_ml), mouse PTCH1(Mm00436026_m1), and mouse CYP24A1 (Mm00487244_ml). Relative gene expression levels were computed via the ΔΔCt method. […]
For experiment [8], the system named is Hh signaling (Gli1 mRNA) in SuFu−/− C3H10T1/2 cells. Kind of experiment: Gli1 down-regulation in SuFu−/− C3H10T1/2 cells. The experiment is classed as cell-based, mouse. Conditions: 24 h.
Procedure: as §5, §6
For experiment [9], the system named is Cyp24A1 mRNA in VDR−/− C3H10T1/2 cells. The experiment is described as follows: Cyp24A1 up-regulation in VDR−/− C3H10T1/2 cells. The class given is cell-based, mouse. To be noted: 24 h.
Procedure: as §5, §6
Experiment [10] deals with Cyp24A1 mRNA in SuFu−/− C3H10T1/2 cells. The experiment is described as follows: Cyp24A1 up-regulation in SuFu−/− C3H10T1/2 cells. The experiment is classed as cell-based, mouse. To be noted: 24 h.
Procedure: as §5, §6
The target of the next experiment is T2, Smo protein (Homo sapiens, UniProt Q99835).
T2 construct: purchased ACRO Biosystems SMO-H52P3
Kind of experiment: Surface plasmon resonance (SPR) binding to Smo. To be noted: 2.5, 5, 10 μM in PBS, 4 °C. As to the method: Surface plasmon resonance (SPR) was used to evaluate the binding capacity of the compounds 3j and 4i to Smo. […] To investigate the binding sites of the analogues on Smo, the ability of 3j and 4i to displace BODIPY-Cyc from HEK293T cells overexpressing full-length human Smo was evaluated. […] Smo contains two small molecule binding sites, one located in the extracellular cysteine-rich domain (CRD) and the other in the 7-transmembrane helix (7-TM) region. […] Endogenous oxidized sterols can regulate Smo activity by binding CRD [27]. These analogues, as mimetics of steroid hormones, may interact with Smo by binding to CRD.
SPR analysis was conducted as described in papers. The analyses of interactions between Smo protein (ACRO Biosystems, SMO-H52P3, Newark, DE, USA) and compounds at different concentrations (2.5, 5, 10 μM) was performed in PBS and a flow rate of 2 μL/s at 4 °C. The sensor chip surface was regenerated by injection of 0.5% SDS: Glycine-HCl (pH = 2.0) = 1:1 solution.

A further experiment concerns the target T3, full-length human Smo (Homo sapiens, UniProt Q99835).
T3 construct: HEK293T cells overexpressing full-length human Smo was evaluated; expressed in transfected cells; host or cells: HEK293T
The experiment is described as follows: BODIPY-Cyc displacement (flow cytometry) in HEK293T cells overexpressing Smo. The experiment is classed as binding. To be noted: up to 10 μM. (In flow cytometry, cells or beads pass a laser one at a time.)

Another experiment relates to Hh signaling pathway. Kind of experiment: Anti-Hh activity in combination with vismodegib. The class given is cell-based. Conditions: combined with vismodegib 100 nM.

T2 sequence (Q99835 28-787): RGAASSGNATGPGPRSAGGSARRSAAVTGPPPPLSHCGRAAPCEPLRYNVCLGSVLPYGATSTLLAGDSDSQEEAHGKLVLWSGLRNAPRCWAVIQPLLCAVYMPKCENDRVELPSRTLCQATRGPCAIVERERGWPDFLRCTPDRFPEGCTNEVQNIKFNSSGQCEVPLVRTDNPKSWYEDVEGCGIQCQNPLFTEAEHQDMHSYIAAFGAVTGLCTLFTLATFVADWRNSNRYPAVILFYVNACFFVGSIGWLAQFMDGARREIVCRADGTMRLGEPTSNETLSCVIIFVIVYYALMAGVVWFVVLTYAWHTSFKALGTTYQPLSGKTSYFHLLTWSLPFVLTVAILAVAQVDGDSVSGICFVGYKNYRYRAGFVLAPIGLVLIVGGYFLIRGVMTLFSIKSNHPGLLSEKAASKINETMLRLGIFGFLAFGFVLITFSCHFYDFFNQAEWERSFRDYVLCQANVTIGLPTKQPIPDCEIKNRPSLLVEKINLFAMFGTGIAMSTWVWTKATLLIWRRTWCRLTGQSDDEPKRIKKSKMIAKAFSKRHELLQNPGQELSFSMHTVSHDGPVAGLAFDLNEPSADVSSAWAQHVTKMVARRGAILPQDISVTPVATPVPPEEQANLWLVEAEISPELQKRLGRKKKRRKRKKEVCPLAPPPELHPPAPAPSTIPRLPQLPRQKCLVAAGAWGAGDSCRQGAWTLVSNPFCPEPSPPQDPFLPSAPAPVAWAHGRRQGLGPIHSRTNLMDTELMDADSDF
T3 sequence (Q99835 28-787): as above
Procedure for full-length human Smo: For flow cytometry experiments [16, 32], HEK293T cells were transfected with Smo-Myc3, co-incubated with BODIPY Cyc and different compounds, and then incubated with anti-Myc antibody, followed by Alexa Flour-647 donkey anti-rabbit antibody. Finally, cells were analyzed for green fluorescence using flow cytometry.

As to `C[C@H](COCC(C)(C)O)[C@H]1CC[C@H]2[C@@H](OC(=O)c3cc(O)cc(O)c3)CCC[C@]12C` [Compound 4i], the mrna remaining at 5 µM in [1] (C3H 10T1/2, 5 μM with OHCs 5 μM, 24 h, relative Gli1 mRNA levels compared to OHCs (set to 100%)) was found to be 1.7 ± 0.3%. The IC50 (as a rule, the point on the concentration scale where inhibition reaches its midpoint) in [1] (C3H 10T1/2, mean ± SEM) worked out at 1100 ± 100 nM; in [3], 1900 ± 300 nM; in [4], 1800 ± 300 nM. The figures for the fold induction at 5 µM in experiment [2] and in experiment [5] were 129 ± 16.8 and 87.4 ± 10.6, respectively. Moreover, the “VDR Binding” value on recombinant VDR is listed as above 100 µM. Further, the results for the GI50 (in [6]; in the experiment on ASZ001 cells) were 2200 ± 300 nM and 5800 ± 800 nM, respectively. The “Ability to inhibit Hh signaling (Gli1 down-regulation) versus wild-type cells” value is reported as “modestly reduced” in experiment [7] and “mostly abolished” in experiment [8]. For the same compound, the “Ability to up-regulate Cyp24A1 versus wild-type cells” value in [9] and in experiment [10] was “significantly reduced” throughout. For the same compound, the “SPR interaction with Smo” value at Smo protein is on record as “exhibited interactions with Smo”. Also, the “Displacement of BODIPY-Cyc from Smo” value at full-length human Smo is listed as “neither 3j nor 4i affected BODIPY-Cyc-Smo binding interactions”. Besides, the “Change of IC50 value in combination with vismodegib” value with Hh signaling pathway is recorded as “did not change the IC50 value”.
